{"source": "ChEMBL document CHEMBL4340512", "about": "“Discovery of novel triazolo[4,3-b]pyridazin-3-yl-quinoline derivatives as PIM inhibitors” (Eur J Med Chem, 2019)", "key": {"A673": {"system": "A673", "assay": "Antiproliferative activity against human A673 cells incubated for 72 hrs by CellTiter-Glo luminescence assay", "type": "functional", "details": "A673, 72 h"}, "U-87 MG": {"system": "U-87 MG", "assay": "Antiproliferative activity against human U87MG assessed as combination index at 20 uM incubated for 72 hrs in presence of GI50 dose of Lapatinib by CellTiter-Glo luminescence assay", "type": "functional, U-87MG ATCC"}, "SW-620": {"system": "SW-620", "assay": "Antiproliferative activity against human SW620 cells incubated for 72 hrs by CellTiter-Glo luminescence assay", "type": "functional", "details": "SW-620, 72 h"}, "JeKo-1 [1]": {"system": "JeKo-1", "assay": "Antiproliferative activity against human JeKo1 assessed as combination index at 10 uM incubated for 72 hrs in presence of GI50 dose of Palbociclib by CellTiter-Glo luminescence assay", "type": "functional"}, "A-375": {"system": "A-375", "assay": "Antiproliferative activity against human A375 cells incubated for 72 hrs by CellTiter-Glo luminescence assay", "type": "functional", "details": "A-375, 72 h"}, "MIA PaCa-2 [2]": {"system": "MIA PaCa-2", "assay": "Antiproliferative activity against human MIAPaCa2 assessed as combination index at 20 uM incubated for 72 hrs in presence of GI50 dose of GDC-0941 by CellTiter-Glo luminescence assay", "type": "functional"}, "PC-3": {"system": "PC-3", "assay": "Antiproliferative activity against human PC3 assessed as combination index at 20 uM incubated for 72 hrs in presence of GI50 dose of Vorinostat by CellTiter-Glo luminescence assay", "type": "functional"}, "[3]": {"assay": "Clearance in iv dosed Balb/c mouse administered as single dose measured after 0.08 to 4 hrs by HPLC/MS analysis", "type": "ADME, organism-based", "details": "in vivo"}, "NAMALVA": {"system": "NAMALVA", "assay": "Antiproliferative activity against human NAMALWA cells incubated for 72 hrs by CellTiter-Glo luminescence assay", "type": "functional"}, "JeKo-1 [4]": {"system": "JeKo-1", "assay": "Antiproliferative activity against human JeKo1 assessed as combination index at 10 uM incubated for 72 hrs in presence of GI50 dose of Lapatinib by CellTiter-Glo luminescence assay", "type": "functional"}, "MIA PaCa-2 [5]": {"system": "MIA PaCa-2", "assay": "Antiproliferative activity against human MIAPaCa2 assessed as combination index at 20 uM incubated for 72 hrs in presence of GI50 dose of Lapatinib by CellTiter-Glo luminescence assay", "type": "functional"}, "MDA-MB-231 [6]": {"system": "MDA-MB-231", "assay": "Antiproliferative activity against human MDA-MB-231 assessed as combination index at 20 uM incubated for 72 hrs in presence of GI50 dose of GDC-0941 by CellTiter-Glo luminescence assay", "type": "functional"}, "JeKo-1 [7]": {"system": "JeKo-1", "assay": "Antiproliferative activity against human JeKo1 cells incubated for 72 hrs by CellTiter-Glo luminescence assay", "type": "functional", "details": "JeKo-1, 72 h"}, "SK-BR-3": {"system": "SK-BR-3", "assay": "Antiproliferative activity against human SKBR3 cells incubated for 72 hrs by CellTiter-Glo luminescence assay", "type": "functional", "details": "SK-BR-3, 72 h"}, "SK-ES1": {"system": "SK-ES1", "assay": "Antiproliferative activity against human SK-ES-1 cells incubated for 72 hrs by CellTiter-Glo luminescence assay", "type": "functional", "details": "SK-ES1, 72 h"}, "SK-MEL19 [8]": {"system": "SK-MEL19", "assay": "Antiproliferative activity against human SK-MEL-19 assessed as combination index at 5 uM incubated for 72 hrs in presence of GI50 dose of Lapatinib by CellTiter-Glo luminescence assay", "type": "functional"}, "HCT-116": {"system": "HCT-116", "assay": "Antiproliferative activity against human HCT116 assessed as combination index at 20 uM incubated for 72 hrs in presence of GI50 dose of Lapatinib by CellTiter-Glo luminescence assay", "type": "functional"}, "MV4-11 [9]": {"system": "MV4-11", "assay": "Antiproliferative activity against human MV4-11 cells incubated for 72 hrs by CellTiter-Glo luminescence assay", "type": "functional", "details": "MV4-11, 72 h"}, "MIA PaCa-2 [10]": {"system": "MIA PaCa-2", "assay": "Antiproliferative activity against human MIAPaCa2 cells incubated for 72 hrs by CellTiter-Glo luminescence assay", "type": "functional", "details": "MIA PaCa-2, 72 h"}, "MV4-11 [11]": {"system": "MV4-11", "assay": "Antiproliferative activity against human MV4-11 assessed as combination index at 10 uM incubated for 72 hrs in presence of GI50 dose of Lapatinib by CellTiter-Glo luminescence assay", "type": "functional"}, "ASPC1": {"system": "ASPC1", "assay": "Antiproliferative activity against human Aspc-1 cells incubated for 72 hrs by CellTiter-Glo luminescence assay", "type": "functional", "details": "ASPC1, 72 h"}, "MV4-11 [12]": {"system": "MV4-11", "assay": "Antiproliferative activity against human MV4-11 assessed as combination index at 10 uM incubated for 72 hrs in presence of GI50 dose of GDC-0941 by CellTiter-Glo luminescence assay", "type": "functional"}, "K562": {"system": "K562", "assay": "Antiproliferative activity against human K562 cells incubated for 72 hrs by CellTiter-Glo luminescence assay", "type": "functional", "details": "K562, 72 h"}, "SK-OV-3": {"system": "SK-OV-3", "assay": "Antiproliferative activity against human SKOV3 cells incubated for 72 hrs by CellTiter-Glo luminescence assay", "type": "functional", "details": "SK-OV-3, 72 h"}, "Raji": {"system": "Raji", "assay": "Antiproliferative activity against human Raji cells incubated for 72 hrs by CellTiter-Glo luminescence assay", "type": "functional"}, "T47D [13]": {"system": "T47D", "assay": "Antiproliferative activity against human T47D cells incubated for 72 hrs by CellTiter-Glo luminescence assay", "type": "functional"}, "COLO 205": {"system": "COLO 205", "assay": "Antiproliferative activity against human COLO205 cells incubated for 72 hrs by CellTiter-Glo luminescence assay", "type": "functional", "details": "COLO 205, 72 h"}, "SW480": {"system": "SW480", "assay": "Antiproliferative activity against human SW480 cells incubated for 72 hrs by CellTiter-Glo luminescence assay", "type": "functional", "details": "SW480, 72 h"}, "SK-MEL19 [14]": {"system": "SK-MEL19", "assay": "Antiproliferative activity against human SK-MEL-19 assessed as combination index at 5 uM incubated for 72 hrs in presence of GI50 dose of Palbociclib by CellTiter-Glo luminescence assay", "type": "functional"}, "U-251": {"system": "U-251", "assay": "Antiproliferative activity against human U251 cells incubated for 72 hrs by CellTiter-Glo luminescence assay", "type": "functional", "details": "U-251, 72 h"}, "[15]": {"target": "Serine/threonine-protein kinase pim-3 (Homo sapiens, UniProt Q86V86)", "assay": "Inhibition of N-terminal 6-His tagged human recombinant PIM3 using PIM tide (ARKRRRHPSGPPTA) as substrate incubated for 1 hr by fluorescence based assay"}, "A549": {"system": "A549", "assay": "Antiproliferative activity against human A549 cells incubated for 72 hrs by CellTiter-Glo luminescence assay", "type": "functional", "details": "A549, 72 h"}, "T47D [16]": {"system": "T47D", "assay": "Antiproliferative activity against human T47D assessed as combination index at 20 uM incubated for 72 hrs in presence of GI50 dose of GDC-0941 by CellTiter-Glo luminescence assay", "type": "functional"}, "NCI-H522": {"system": "NCI-H522", "assay": "Antiproliferative activity against human NCI-H522 cells incubated for 72 hrs by CellTiter-Glo luminescence assay", "type": "functional", "details": "NCI-H522, 72 h"}, "CAKI-1": {"system": "CAKI-1", "assay": "Antiproliferative activity against human CAKI-1 cells incubated for 72 hrs by CellTiter-Glo luminescence assay", "type": "functional", "details": "CAKI-1, 72 h"}, "LNCaP": {"system": "LNCaP", "assay": "Antiproliferative activity against human LNCAP cells incubated for 72 hrs by CellTiter-Glo luminescence assay", "type": "functional"}, "MDA-MB-231 [17]": {"system": "MDA-MB-231", "assay": "Antiproliferative activity against human MDA-MB-231 assessed as combination index at 20 uM incubated for 72 hrs in presence of GI50 dose of Palbociclib by CellTiter-Glo luminescence assay", "type": "functional"}, "DU-145": {"system": "DU-145", "assay": "Antiproliferative activity against human DU145 cells incubated for 72 hrs by CellTiter-Glo luminescence assay", "type": "functional", "details": "DU-145, 72 h"}, "MDA-MB-231 [18]": {"system": "MDA-MB-231", "assay": "Antiproliferative activity against human MDA-MB-231 cells incubated for 72 hrs by CellTiter-Glo luminescence assay", "type": "functional", "details": "MDA-MB-231, 72 h"}}, "note": "pIC50: −log10 of the molar value.", "data": [{"smiles": "COCCN1CCOc2c1cnn1c(-c3ccc4cccc(NCC5CCNCC5)c4n3)nnc21", "values": [{"measurement": "GI50", "setting": "A673", "value": 12.7, "unit": "µM"}, {"measurement": "CI", "setting": "U-87 MG", "value": 0.43}, {"measurement": "GI50", "setting": "SW-620", "value": 8.73, "unit": "µM"}, {"measurement": "CI", "setting": "JeKo-1 [1]", "value": 0.108}, {"measurement": "GI50", "setting": "A-375", "value": 21.8, "unit": "µM"}, {"measurement": "CI", "setting": "MIA PaCa-2 [2]", "value": 0.075}, {"measurement": "CI", "setting": "PC-3", "value": 0.346}, {"measurement": "clearance", "setting": "[3]", "value": 21, "unit": "mL/min/kg"}, {"measurement": "GI50", "setting": "NAMALVA", "value": 9.68, "unit": "µM"}, {"measurement": "CI", "setting": "JeKo-1 [4]", "value": 0.295}, {"measurement": "CI", "setting": "MIA PaCa-2 [5]", "value": 0.069}, {"measurement": "CI", "setting": "MDA-MB-231 [6]", "value": 0.0001}, {"measurement": "GI50", "setting": "JeKo-1 [7]", "value": 7.3, "unit": "µM"}, {"measurement": "GI50", "setting": "SK-BR-3", "value": 21, "unit": "µM"}, {"measurement": "GI50", "setting": "SK-ES1", "value": 7.38, "unit": "µM"}, {"measurement": "CI", "setting": "SK-MEL19 [8]", "value": 0.508}, {"measurement": "CI", "setting": "HCT-116", "value": 0.001}, {"measurement": "GI50", "setting": "MV4-11 [9]", "value": 6.46, "unit": "µM"}, {"measurement": "GI50", "setting": "MIA PaCa-2 [10]", "value": 17.4, "unit": "µM"}, {"measurement": "CI", "setting": "MV4-11 [11]", "value": 0.43}, {"measurement": "GI50", "setting": "ASPC1", "value": 7.25, "unit": "µM"}, {"measurement": "CI", "setting": "MV4-11 [12]", "value": 0.334}, {"measurement": "GI50", "setting": "K562", "value": 19.9, "unit": "µM"}, {"measurement": "GI50", "setting": "SK-OV-3", "value": 23.5, "unit": "µM"}, {"measurement": "GI50", "setting": "Raji", "value": 20, "unit": "µM"}, {"measurement": "GI50", "setting": "T47D [13]", "value": 10.8, "unit": "µM"}, {"measurement": "GI50", "setting": "COLO 205", "value": 5.25, "unit": "µM"}, {"measurement": "GI50", "setting": "SW480", "value": 8.17, "unit": "µM"}, {"measurement": "CI", "setting": "SK-MEL19 [14]", "value": 0.351}, {"measurement": "GI50", "setting": "U-251", "value": 17.8, "unit": "µM"}, {"measurement": "pIC50", "setting": "[15]", "value": 7.15}, {"measurement": "GI50", "setting": "A549", "value": 16.2, "unit": "µM"}, {"measurement": "CI", "setting": "T47D [16]", "value": 0.598}, {"measurement": "GI50", "setting": "NCI-H522", "value": 9.7, "unit": "µM"}, {"measurement": "GI50", "setting": "CAKI-1", "value": 22.1, "unit": "µM"}, {"measurement": "GI50", "setting": "LNCaP", "value": 18.6, "unit": "µM"}, {"measurement": "CI", "setting": "MDA-MB-231 [17]", "value": 0.047}, {"measurement": "GI50", "setting": "DU-145", "value": 22.4, "unit": "µM"}, {"measurement": "GI50", "setting": "MDA-MB-231 [18]", "value": 21.2, "unit": "µM"}]}]}
